Patent publication US7786083B2, “Metastin derivatives and use thereof” (Takeda Pharmaceutical Company Limited, priority 2006, dated 2010)
*1 amine or outer side, *2 acyl side, *3 side chain or, on linkers, in order; H or OH if unused. Where a SMILES comes first, the peptide text is derived from it. [ ]: non-standard residue; d: D form. Glyψ(E-CHCH)Leu = CC(C)C[C@H](/C=C/CN[*:1])C(=O)[*:2]; Glyψ(CH2S)Leu = CC(C)C[C@H](SCCN[*:1])C(=O)[*:2]; Arg(Me) = CNC(=N)NCCC[C@H](N)C(=O)O; Dap(CONH2) = NC(=O)NC[C@H](N)C(=O)O; Ala(cPr) = N[C@@H](CC1CC1)C(=O)O; Hyp = O=C(O)[C@@H]1C[C@@H](O)CN1; Cha = N[C@@H](CC1CCCCC1)C(=O)O; Cit = NC(=O)NCCC[C@H](N)C(=O)O; Nva = CCC[C@H](N)C(=O)O

System: metastin receptors
Assay: Measurement of agonist activity by assaying changes in intracellular calcium ion level (FLIPR, Fluo-4 NW)
Format: cell-based, human
Conditions: specific activity of the EC50 of a test compound based on the EC50 of Metastin (45-54), metastin receptor expression CHO cells
Outline: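 CHO/dhfr⁻ cells stably expressing human or rat metastin receptor, seeded 3×10^4/well for 24 h, loaded with Fluo-4 NW 30 min at 37 °C in HBSS with 0.1% BSA, 20 mM HEPES pH 7.4 and 1 mM probenecid. Compound-stimulated intracellular calcium change read on FLIPR.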

Row | SMILES | Specific Activity
1 | CNC(=N)NCCC[C@H](NC(=O)[C@@H](/C=C/CNC(=O)[C@H](CC1CCCCC1)NC(=O)[C@@H](NC(=O)[C@H](CCCNC(N)=O)NC(=O)[C@@H]1C[C@@H](O)CN1C(=O)[C@@H](Cc1ccc(O)cc1)NC(C)=O)[C@@H](C)O)CC(C)C)C(=O)N[C@@H](Cc1c[nH]c2ccccc12)C(N)=O [Compound No. 914, des(1)-Ac-[D-Tyr2,Hyp3,Cit4,Thr5,Cha6,Gly7Ψ((E)CH═CH)Leu8,Arg(Me)9,Trp10]MS10] (Ac-[dY][Hyp][Cit]T[Cha][Glyψ(E-CHCH)Leu][Arg(Me)]W-NH2) | 0.9
2 | CNC(=N)NCCC[C@H](NC(=O)[C@@H](/C=C/CNC(=O)[C@H](CC1CCCCC1)NC(=O)[C@@H](NC(=O)[C@H](CCC(=O)O)NC(=O)[C@@H]1C[C@@H](O)CN1C(=O)[C@@H](Cc1ccc(O)cc1)NC(C)=O)[C@@H](C)O)CC(C)C)C(=O)N[C@@H](Cc1c[nH]c2ccccc12)C(N)=O [Compound No. 915, des(1)-Ac-[D-Tyr2,Hyp3,Glu4,Thr5,Cha6,Gly7Ψ((E)CH═CH)Leu8,Arg(Me)9,Trp10]MS10] (Ac-[dY][Hyp]ET[Cha][Glyψ(E-CHCH)Leu][Arg(Me)]W-NH2) | 4.6
3 | CNC(=N)NCCC[C@H](NC(=O)[C@H](COC)NC(=O)CNC(=O)[C@H](CC1CCCCC1)NC(=O)[C@@H](NC(=O)[C@H](CC(N)=O)NC(=O)[C@@H]1C[C@@H](O)CN1C(=O)[C@@H](Cc1ccc(O)cc1)NC(C)=O)[C@@H](C)O)C(=O)N[C@@H](Cc1c[nH]c2ccccc12)C(N)=O [Compound No. 920, des(1)-Ac-[D-Tyr2,Hyp3,Thr5,Cha6,Ser(Me)8,Arg(Me)9,Trp10]MS10] (Ac-[dY][Hyp]NT[Cha]GS(Me)[Arg(Me)]W-NH2) | 0.5
4 | CNC(=N)NCCC[C@H](NC(=O)[C@H](COC)NC(=O)CNC(=O)[C@H](CC1CCCCC1)NC(=O)[C@@H](NC(=O)[C@H](CC(N)=O)NC(=O)[C@H](CCC(=O)O)NC(=O)[C@@H](Cc1ccc(O)cc1)NC(C)=O)[C@@H](C)O)C(=O)N[C@@H](Cc1c[nH]c2ccccc12)C(N)=O [Compound No. 923, des(1)-Ac-[D-Tyr2,Glu3,Thr5,Cha6,Ser(Me)8,Arg(Me)9,Trp10]MS10] (Ac-[dY]ENT[Cha]GS(Me)[Arg(Me)]W-NH2) | 0.5
5 | CCC[C@H](NC(=O)CNC(=O)[C@H](CC1CCCCC1)NC(=O)[C@@H](NC(=O)[C@H](CC(N)=O)NC(=O)[C@H](CCC(=O)O)NC(=O)[C@@H](Cc1ccc(O)cc1)NC(C)=O)[C@@H](C)O)C(=O)N[C@@H](CCCNC(=N)NC)C(=O)N[C@@H](Cc1c[nH]c2ccccc12)C(N)=O [Compound No. 924, des(1)-Ac-[D-Tyr2,Glu3,Thr5,Cha6,Nva8,Arg(Me)9,Trp10]MS10] (Ac-[dY]ENT[Cha]G[Nva][Arg(Me)]W-NH2) | 0.4
6 | CC(=O)N[C@H](Cc1ccc(O)cc1)C(=O)N1C[C@H](O)C[C@H]1C(=O)N[C@@H](CC(N)=O)C(=O)N[C@H](C(=O)N[C@@H](CC1CCCCC1)C(=O)NC/C=C/[C@@H](CC(C)C)C(=O)N[C@@H](CCCNC(=N)N)C(=O)N[C@@H](Cc1c[nH]c2ccccc12)C(N)=O)[C@@H](C)O [Compound No. 926, des(1)-Ac-[D-Tyr2,Hyp3,Thr5,Cha6,Gly7Ψ((E)CH═CH)Leu8,Trp10]MS10] (Ac-[dY][Hyp]NT[Cha][Glyψ(E-CHCH)Leu]RW-NH2) | 0.6
7 | CC(=O)N[C@H](Cc1ccc(O)cc1)C(=O)N1C[C@H](O)C[C@H]1C(=O)N[C@@H](CNC(N)=O)C(=O)N[C@H](C(=O)N[C@@H](CC1CCCCC1)C(=O)NC/C=C/[C@@H](CC(C)C)C(=O)N[C@@H](CCCNC(=N)N)C(=O)N[C@@H](Cc1c[nH]c2ccccc12)C(N)=O)[C@@H](C)O [Compound No. 927, des(1)-Ac-[D-Tyr2,Hyp3,Alb4,Thr5,Cha6,Gly7Ψ((E)CH═CH)Leu8,Trp10]MS10] (Ac-[dY][Hyp][Dap(CONH2)]T[Cha][Glyψ(E-CHCH)Leu]RW-NH2) | 0.5

The next lines start with the values.

Row | Specific Activity | SMILES
8 | 0.8 | CNC(=N)NCCC[C@H](NC(=O)[C@H](CC1CC1)NC(=O)CNC(=O)[C@H](Cc1ccccc1)NC(=O)[C@@H](NC(=O)[C@H](CC(N)=O)NC(=O)[C@@H]1C[C@@H](O)CN1C(=O)[C@@H](Cc1ccc(O)cc1)NC(C)=O)[C@@H](C)O)C(=O)N[C@@H](Cc1c[nH]c2ccccc12)C(N)=O [Compound No. 916, des(1)-Ac-[D-Tyr2,Hyp3,Thr5,Ala(cPr)8,Arg(Me)9,Trp10]MS10] (Ac-[dY][Hyp]NTFG[Ala(cPr)][Arg(Me)]W-NH2)
9 | 0.8 | CNC(=N)NCCC[C@H](NC(=O)[C@H](COC)NC(=O)CNC(=O)[C@H](Cc1ccccc1)NC(=O)[C@@H](NC(=O)[C@H](CC(N)=O)NC(=O)[C@@H]1C[C@@H](O)CN1C(=O)[C@@H](Cc1ccc(O)cc1)NC(C)=O)[C@@H](C)O)C(=O)N[C@@H](Cc1c[nH]c2ccccc12)C(N)=O [Compound No. 917, des(1)-Ac-[D-Tyr2,Hyp3,Thr5,Ser(Me)8,Arg(Me)9,Trp10]MS10] (Ac-[dY][Hyp]NTFGS(Me)[Arg(Me)]W-NH2)
10 | 0.7 | CCC[C@H](NC(=O)CNC(=O)[C@H](Cc1ccccc1)NC(=O)[C@@H](NC(=O)[C@H](CC(N)=O)NC(=O)[C@@H]1C[C@@H](O)CN1C(=O)[C@@H](Cc1ccc(O)cc1)NC(C)=O)[C@@H](C)O)C(=O)N[C@@H](CCCNC(=N)NC)C(=O)N[C@@H](Cc1c[nH]c2ccccc12)C(N)=O [Compound No. 918, des(1)-Ac-[D-Tyr2,Hyp3,Thr5,Nva8,Arg(Me)9,Trp10]MS10] (Ac-[dY][Hyp]NTFG[Nva][Arg(Me)]W-NH2)
11 | 0.5 | CCC[C@H](NC(=O)CNC(=O)[C@H](CC1CCCCC1)NC(=O)[C@@H](NC(=O)[C@H](CC(N)=O)NC(=O)[C@@H]1C[C@@H](O)CN1C(=O)[C@@H](Cc1ccc(O)cc1)NC(C)=O)[C@@H](C)O)C(=O)N[C@@H](CCCNC(=N)NC)C(=O)N[C@@H](Cc1c[nH]c2ccccc12)C(N)=O [Compound No. 921, des(1)-Ac-[D-Tyr2,Hyp3,Thr5,Cha6,Nva8,Arg(Me)9,Trp10]MS10] (Ac-[dY][Hyp]NT[Cha]G[Nva][Arg(Me)]W-NH2)
12 | 0.4 | CC(=O)N[C@H](Cc1ccc(O)cc1)C(=O)N1C[C@H](O)C[C@H]1C(=O)N[C@@H](CC(N)=O)C(=O)N[C@H](C(=O)N[C@@H](Cc1ccccc1)C(=O)NC/C=C/[C@@H](CC(C)C)C(=O)N[C@@H](CCCNC(=N)N)C(=O)N[C@@H](Cc1c[nH]c2ccccc12)C(N)=O)[C@@H](C)O [Compound No. 925, des(1)-Ac-[D-Tyr2,Hyp3,Thr5,Gly7Ψ((E)CH═CH)Leu8,Trp10]MS10] (Ac-[dY][Hyp]NTF[Glyψ(E-CHCH)Leu]RW-NH2)
13 | 1.2 | CNC(=N)NCCC[C@H](NC(=O)[C@H](CC(C)C)SCCNC(=O)[C@H](Cc1ccccc1)NC(=O)[C@@H](NC(=O)[C@H](CC(N)=O)NC(=O)[C@@H]1C[C@@H](O)CN1C(=O)[C@@H](Cc1ccc(O)cc1)NC(C)=O)[C@@H](C)O)C(=O)N[C@@H](Cc1c[nH]c2ccccc12)C(N)=O [Compound No. 929, des(1)-Ac-[D-Tyr2,Hyp3,Thr5,Gly7Ψ(CH2S)Leu8,Arg(Me)9,Trp10]MS10] (Ac-[dY][Hyp]NTF[Glyψ(CH2S)Leu][Arg(Me)]W-NH2)
14 | 1.7 | CNC(=N)NCCC[C@H](NC(=O)[C@H](CC(C)C)SCCNC(=O)[C@H](CC1CCCCC1)NC(=O)[C@@H](NC(=O)[C@H](CC(N)=O)NC(=O)[C@@H]1C[C@@H](O)CN1C(=O)[C@@H](Cc1ccc(O)cc1)NC(C)=O)[C@@H](C)O)C(=O)N[C@@H](Cc1c[nH]c2ccccc12)C(N)=O [Compound No. 931, des(1)-Ac-[D-Tyr2,Hyp3,Thr5,Cha6,Gly7Ψ(CH2S)Leu8,Arg(Me)9,Trp10]MS10] (Ac-[dY][Hyp]NT[Cha][Glyψ(CH2S)Leu][Arg(Me)]W-NH2)
